Measured values published in ChEMBL document CHEMBL1128031, “The design of dipeptide helical mimetics: the synthesis and biological activity of trisubstituted indanes” (Bioorg Med Chem Lett, 1994).
Peptide text beside a SMILES is read from it. * marks the point of attachment. Cbz = O=C(OCc1ccccc1)*

Assays:
Neuromedin-K receptor = target: T1, Neuromedin-K receptor (Homo sapiens, UniProt P29371); experiment: Inhibition of [125I][MePhe]-NKB binding to human Tachykinin receptor 3 in CHO cells; assay type: cell-based
T1 sequence (P29371 whole entry): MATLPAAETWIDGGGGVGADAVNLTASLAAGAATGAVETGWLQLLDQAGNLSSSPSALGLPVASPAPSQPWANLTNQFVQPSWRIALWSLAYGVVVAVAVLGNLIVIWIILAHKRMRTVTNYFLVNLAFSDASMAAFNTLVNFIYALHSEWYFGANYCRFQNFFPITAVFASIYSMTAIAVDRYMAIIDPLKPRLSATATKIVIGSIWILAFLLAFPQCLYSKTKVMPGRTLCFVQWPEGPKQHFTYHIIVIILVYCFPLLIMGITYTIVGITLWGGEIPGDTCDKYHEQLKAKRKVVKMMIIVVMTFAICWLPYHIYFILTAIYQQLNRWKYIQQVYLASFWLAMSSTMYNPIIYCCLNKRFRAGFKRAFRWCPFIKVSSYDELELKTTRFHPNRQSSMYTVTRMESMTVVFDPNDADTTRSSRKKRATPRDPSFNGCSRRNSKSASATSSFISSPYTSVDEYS

Substance-P receptor = Substance-P receptor (Homo sapiens, UniProt P25103); experiment: Inhibition of [125I]BH-SP binding to tachykinin NK1 receptor in human IM-9 cells; assay type: cell-based
Sequence of Substance-P receptor (P25103 whole entry): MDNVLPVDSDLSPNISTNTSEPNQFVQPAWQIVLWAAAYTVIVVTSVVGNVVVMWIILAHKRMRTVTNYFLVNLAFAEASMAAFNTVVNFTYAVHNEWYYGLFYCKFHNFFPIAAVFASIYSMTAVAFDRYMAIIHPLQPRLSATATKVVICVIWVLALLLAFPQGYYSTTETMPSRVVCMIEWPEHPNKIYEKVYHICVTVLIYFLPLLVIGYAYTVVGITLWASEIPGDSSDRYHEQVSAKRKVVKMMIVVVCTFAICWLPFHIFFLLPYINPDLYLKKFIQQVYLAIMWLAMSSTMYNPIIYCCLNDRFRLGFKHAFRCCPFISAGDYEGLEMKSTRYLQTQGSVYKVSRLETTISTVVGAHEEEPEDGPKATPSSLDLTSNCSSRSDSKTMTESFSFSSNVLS

| Compound | IC50 (Neuromedin-K receptor) [µM] | IC50 (Substance-P receptor) [µM] |
| --- | --- | --- |
| COC(=O)C1(Cc2ccccc2)CCc2ccc(Cc3ccccc3)cc21 (stereo unspecified) | 8 | 3 |
| O=C(NCCc1ccccc1)C1(Cc2ccccc2)CCc2ccc(Cc3ccccc3)cc21 (stereo unspecified) | 3 | 2.4 |
| CC(C)(C)CNC(=O)C1(Cc2ccccc2)CCc2ccc(Cc3ccccc3)cc21 (stereo unspecified) | 5.2 |  |
| NC(=O)[C@H](Cc1ccccc1)NC(=O)[C@H](Cc1c[nH]c2ccccc12)NC(=O)OCc1ccccc1 (Cbz-Trp-Phe-NH2) |  | 9.3 |
